# Measurements: patent US20070292488A1, “METHOD FOR TREATMENT OF WOUND TREATMENT USING AGANOCIDES” (priority 2006, published 2007)
# Key:
# test bacteria = test: Comparison of hypochlorous acid with Dakin's solution (antimicrobial activity, therapeutic index, time kill); settings: in the regimen described
# Source text: “Time kill” refers to an in vitro measure of how fast a given antimicrobial can kill test bacteria.
# This means that the time to wound closure may be reduced using hypochlorous acid.
# [1] = system: human secondary intention wound; test: Vacuum-assisted wound treatment combined with intermittent instillation of aganocide (HOCl) on a human wound; type: in vivo; settings: 0.45% NaCl, pH about 4
# Experimental: A human secondary intention wound approximately 3-4 cm in diameter is fitted with a polyurethane sponge, pore size 400-600 microns cut to the size of the wound and twice the thickness of the wound and covered with an adhesive film, per instructions on the vacuum system. The outlet is connected to an IV bag (500 ml) with 0.01% HOCl, 0.45% NaCl, and pH of about 4 and is elevated to between 0.1 and 1 meter above the wound. A 1-cm hole is punctured in the adhesive film, and a second adhesive film is used to cover the hole, with the second outlet connected to the vacuum pump.
# Each cycle consists of three phases: a 2-hour pumping phase when the vacuum (125 mm Hg negative pressure) is connected and the IV bag is disconnected; […] and the IV bag is connected and the aganocide is applied to the wound; […] IV bag are disconnected.
# Each treatment has about 24 cycles and starts with a pumping phase and proceeds for 48 hours. When the treatment is completed, the dressings are changed and the treatment is repeated until full granulation has been promoted and the granulation tissue is within the level of the skin, approximately 30 to 100 days, depending on the depth of the original wound. […]
compound,measurement,setting,value
OCl [hypochlorous acid],antimicrobial activity in comparison with Dakin's solution,test bacteria,improved
same,therapeutic index in comparison with Dakin's solution,test bacteria,improved
same,time kill in comparison with Dakin's solution,test bacteria,improved
same,wound healing results of combination regimen compared with vacuum alone or aganocide alone,"[1]; Example 1: 0.01% HOCl, 1 second instilling, 15 second holding",superior
same,wound healing results of combination regimen compared with vacuum alone or aganocide alone,"[1]; Example 2: 0.01% HOCl, 5 second instilling, 5 minute holding",superior
